Assay results reported in patent publication US20250145596A1, “HETEROCYCLIC GLP-1 AGONISTS” (Gasherbrum Bio, Inc., priority 2022, published 2025).

Molecular target: T1, GLP-1 Receptor (Homo sapiens, UniProt P43220)
T1 construct: host or cells: HEK293/CRE-Luc
Assay: GLP-1R agonist cAMP stimulation assay
Format: cell-based
Settings: HEK293/CRE-Luc cell line stably expressing the GLP-1 Receptor; 30 min at 37° C.; cAMP dynamic 2 Kit
Protocol: Activation of GLP-1 receptor is known to stimulate cyclic AMP (cAMP) production in cells which indicates primary coupling to the Gas subunit of the G protein heterotrimeric complex.
To optimize functional activity directed toward Gas coupling, a HEK293/CRE-Luc cell line developed by HDB stably expressing the GLP-1 Receptor was used. 200× concentration of compound working solutions were prepared (Agilent Technologies Bravo) with ½ log serial dilution in 384-well Echo LDV plate (Labcyte, Cat #LP-0200). 50 nL/well 200× concentration of compound working solutions were moved to 384-well white low volume plate (Greiner, Cat #784075) using Labcyte ECHO550. 1×10^5 cells/mL HEK293/GLPlR/CRE-LUC (HD Biosciences) cell suspensions prepared with assay buffer [DPBS containing 0.5 mM IBMX (Sigma, Cat #15879) and 0.1% BSA (GENVIEW, Cat #FA016-100g)], 10 μL cell suspensions were added to each well of previous generated assay plate which already contains 50 nL compound at 200× concentration using ThermoFisher Multidrop Combi (1000 cells/well). Seal the plate and incubate at 37° C. with 5% CO2 for 30 min.
After incubation the cAMP assay signal was generated using cAMP dynamic 2 Kit (Cisbio). 5 μL cAMP-d2 working solution was added to each well, followed with 5 μL Anti-cAMP antibody-cryptate working solution added to each well using ThermoFisher Multidrop Combi. Incubate at room temperature for 1 hour protected from light. Read the fluorescence at 665 and 615 nm with Reader PerkinElmer EnVision.
% Activity=100%×(mean RLU of test sample mean RLU of vehicle control)/(mean RLU of MAX control−mean RLU of vehicle control))

T1 sequence (P43220 24-463): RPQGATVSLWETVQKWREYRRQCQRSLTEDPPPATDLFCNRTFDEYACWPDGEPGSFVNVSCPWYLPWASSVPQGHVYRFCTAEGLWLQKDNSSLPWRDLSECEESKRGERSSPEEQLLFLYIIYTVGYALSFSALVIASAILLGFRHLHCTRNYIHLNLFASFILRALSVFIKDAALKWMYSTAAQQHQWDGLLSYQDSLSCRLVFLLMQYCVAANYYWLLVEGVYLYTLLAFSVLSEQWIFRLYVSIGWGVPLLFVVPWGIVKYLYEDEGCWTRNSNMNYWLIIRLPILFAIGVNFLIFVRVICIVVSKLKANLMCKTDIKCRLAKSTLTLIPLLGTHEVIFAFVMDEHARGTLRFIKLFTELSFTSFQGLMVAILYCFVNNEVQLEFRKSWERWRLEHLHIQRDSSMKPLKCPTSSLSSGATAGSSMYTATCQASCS

| Structure (SMILES) | EC50 |
| --- | --- |
| CC1(c2ccc(Cl)cc2F)Oc2c(F)ccc(C3CCN(Cc4ncc(-c5nnc(C(F)(F)F)[nH]5)cc4CC4(C#N)CC4)CC3)c2O1 (centres unmarked) [Example 12, 1-{[2-({4-[2-(4-chloro-2-fluorophenyl)-7-fluoro-2-methyl-2H-1,3-benzodioxol-4-yl]piperidin-1-yl}methyl)-5-[5-(trifluoromethyl)-4H-1,2,4-triazol-3-yl]pyridin-3-yl]methyl}cyclopropane-1-carbonitrile] | < 1 nM |
| N#CC1(Cc2cc(-c3nnc(C(F)(F)F)[nH]3)cnc2CN2CCN(c3ccc(F)c(OCc4ccc(Cl)cc4F)c3)CC2)CC1 [Example 41, 1-({2-[(4-{3-[(4-chloro-2-fluorophenyl)methoxy]-4-fluorophenyl}piperazin-1-yl)methyl]-5-[5-(trifluoromethyl)-4H-1,2,4-triazol-3-yl]pyridin-3-yl}methyl)cyclopropane-1-carbonitrile] | < 1 nM |
| CC1(c2ccc(Cl)cc2F)Oc2cccc(C3CCN(Cc4ncc(-c5nnc(C(F)(F)F)[nH]5)cc4CC4(C#N)CC4)CC3(F)F)c2O1 (centres unmarked) [Example 22, 1-{[2-({4-[2-(4-chloro-2-fluorophenyl)-2-methyl-2H-1,3-benzodioxol-4-yl]-3,3-difluoropiperidin-1-yl}methyl)-5-[5-(trifluoromethyl)-4H-1,2,4-triazol-3-yl]pyridin-3-yl]methyl}cyclopropane-1-carbonitrile] | < 1 nM |
| N#CC1(Cc2cc(-c3nnc(C(F)(F)F)[nH]3)cnc2CN2CCC(c3cccnc3OCc3ccc(Cl)cc3F)CC2)CC1 [Example 37, 1-({2-[(4-{2-[(4-chloro-2-fluorophenyl)methoxy]pyridin-3-yl}piperidin-1-yl)methyl]-5-[5-(trifluoromethyl)-4H-1,2,4-triazol-3-yl]pyridin-3-yl}methyl)cyclopropane-1-carbonitrile] | < 1 nM |
| CC1(c2ccc(F)cc2Cl)Oc2cccc(C3CCN(Cc4ncc(-c5nnc(C(F)(F)F)[nH]5)cc4CC4(C#N)CC4)CC3)c2O1 (centres unmarked) [Example 4, 1-{[2-({4-[2-(2-chloro-4-fluorophenyl)-2-methyl-2H-1,3-benzodioxol-4-yl]piperidin-1-yl}methyl)-5-[5-(trifluoromethyl)-4H-1,2,4-triazol-3-yl]pyridin-3-yl]methyl}cyclopropane-1-carbonitrile] | < 1 nM |
| N#CC1(Cc2cc(-c3nnc(C(F)(F)F)[nH]3)cnc2CN2CCC(c3nc(OCc4ccc(Cl)cc4F)ncc3F)CC2)CC1 [Example 35, 1-({2-[(4-{2-[(4-chloro-2-fluorophenyl)methoxy]-5-fluoropyrimidin-4-yl}piperidin-1-yl)methyl]-5-[5-(trifluoromethyl)-4H-1,2,4-triazol-3-yl]pyridin-3-yl}methyl)cyclopropane-1-carbonitrile] | 1 to 100 nM |
| CC1(c2ccc(Cl)cc2F)Oc2cccc(C3CCN(Cc4ncc(-c5nnc(C(F)(F)F)[nH]5)cc4CC4(C#N)CC4)CC3O)c2O1 (single isomer, unassigned) [Example 23, 1-[(2-{[(3,4-trans)-4-[2-(4-chloro-2-fluorophenyl)-2-methyl-2H-1,3-benzodioxol-4-yl]-3-hydroxypiperidin-1-yl]methyl}-5-[5-(trifluoromethyl)-4H-1,2,4-triazol-3-yl]pyridin-3-yl)methyl]cyclopropane-1-carbonitrile] | 1 to 100 nM |
| C[C@]1(c2ccc(Cl)cc2F)Oc2c(F)ccc(C3CCN(Cc4ncc(-c5nnc(C(F)(F)F)[nH]5)cc4CC4(C#N)CC4)CC3F)c2O1 (single isomer, unassigned) [Example 29] | < 1 nM |
| N#CC1(Cc2cc(-c3nnc(C(F)(F)F)[nH]3)cnc2CN2CCC(c3ccnc(OCc4ccc(Cl)cc4F)n3)CC2)CC1 [Example 34, 1-({2-[(4-{2-[(4-chloro-2-fluorophenyl)methoxy]pyrimidin-4-yl}piperidin-1-yl)methyl]-5-[5-(trifluoromethyl)-4H-1,2,4-triazol-3-yl]pyridin-3-yl}methyl)cyclopropane-1-carbonitrile] | < 1 nM |
| C[C@]1(c2ccc(Cl)cc2F)Oc2cccc(C3CCN(Cc4ncc(/C=C/C(=O)O)cc4CC4(C#N)CC4)CC3)c2O1 [Example 20, (S,E)-3-(6-((4-(2-(4-chloro-2-fluorophenyl)-2-methylbenzo[d][1,3]dioxol-4-yl)piperidin-1-yl)methyl)-5-((1-cyanocyclopropyl)methyl)pyridin-3-yl)acrylic acid] | < 1 nM |
| C[C@]1(c2ccc(Cl)cn2)Oc2cccc(C3CCN(Cc4ncc(-c5nnc(C(F)(F)F)[nH]5)cc4CC4(C#N)CC4)CC3F)c2O1 (single isomer, unassigned) [Example 25] | < 1 nM |

Now from value to compound:

| EC50 | Structure (SMILES) |
| --- | --- |
| 1 to 100 nM | C[C@]1(c2ccc(Cl)cc2F)Oc2cccc(C3CCN(Cc4ncc(C5CC5C(=O)O)cc4CC4(C#N)CC4)CC3)c2O1 (stereo partly drawn) [Example 67, 2-(6-((4-((S)-2-(4-chloro-2-fluorophenyl)-2-methylbenzo[d][1,3]dioxol-4-yl)piperidin-1-yl)methyl)-5-((1-cyanocyclopropyl)methyl)pyridin-3-yl)cyclopropane-1-carboxylic acid] |
| 1 to 100 nM | COCCc1cc(-c2nnc(C(F)(F)F)[nH]2)cnc1CN1CCC(c2cccc3c2O[C@@](C)(c2ccc(Cl)cn2)O3)CC1 [Example 89] |
| 1 to 100 nM | C[C@]1(c2ccc(Cl)cc2F)Oc2cccc(C3CCN(Cc4ncc(-c5nnc(C(F)(F)F)[nH]5)cc4CC4CCS4(=O)=O)CC3)c2O1 (stereo partly drawn) [Example 54, 2-{[2-({4-[(2S)-2-(4-chloro-2-fluorophenyl)-2-methyl-2H-1,3-benzodioxol-4-yl]piperidin-1-yl}methyl)-5-[5-(trifluoromethyl)-4H-1,2,4-triazol-3-yl]pyridin-3-yl]methyl}-1λ^6-thietane-1,1-dione] |
| > 100 nM | Cc1cc(-c2cnn(C)c(=O)c2)cnc1CN1CCC(c2cccc(OCc3ccc(Cl)cc3F)n2)CC1 [Example 100] |
| 1 to 100 nM | COC1(Cc2cc(-c3nnc(C(F)(F)F)[nH]3)cnc2CN2CCC(c3cccc4c3O[C@@](C)(c3ccc(Cl)cc3F)O4)CC2)CC1 [Example 53, 2-({4-[(2S)-2-(4-chloro-2-fluorophenyl)-2-methyl-2H-1,3-benzodioxol-4-yl]piperidin-1-yl}methyl)-3-[(1-methoxycyclopropyl)methyl]-5-[5-(trifluoromethyl)-4H-1,2,4-triazol-3-yl]pyridine] |
| 1 to 100 nM | Cc1cc(-c2cn(C)nn2)cnc1CN1CCC(c2cccc3c2OC(C)(c2ccc(Cl)cc2F)O3)CC1 (centres unmarked) [Example 94] |
| < 1 nM | Cc1ccc(C2(C)Oc3cccc(C4=CCN(Cc5ncc(-c6nnc(C(F)(F)F)[nH]6)cc5CC5(C#N)CC5)CC4)c3O2)c(Cl)c1 (centres unmarked) [Example 65, 1-((2-((4-(2-(2-chloro-4-methylphenyl)-2-methylbenzo[d][1,3]dioxol-4-yl)-3,6-dihydropyridin-1(2H)-yl)methyl)-5-(5-(trifluoromethyl)-4H-1,2,4-triazol-3-yl)pyridin-3-yl)methyl)cyclopropane-1-carbonitrile] |
| 1 to 100 nM | CC(c1cc(-c2nnc(C(F)(F)F)[nH]2)cnc1CN1CCC(c2cccc3c2O[C@@](C)(c2ccc(Cl)cc2F)O3)CC1)S(C)(=O)=O (stereo partly drawn) [Example 60, 2-((4-((S)-2-(4-chloro-2-fluorophenyl)-2-methylbenzo[d][1,3]dioxol-4-yl)piperidin-1-yl)methyl)-3-(1-(methylsulfonyl)ethyl)-5-(5-(trifluoromethyl)-4H-1,2,4-triazol-3-yl)pyridine] |
| < 1 nM | C[C@]1(c2ccc(Cl)cc2F)Oc2cccc(C3CCN(Cc4ncc(-c5nnc(C(F)(F)F)[nH]5)nc4CC4(C#N)CC4)CC3)c2O1 [Example 62, 1-{[3-({4-[(2S)-2-(4-chloro-2-fluorophenyl)-2-methyl-2H-1,3-benzodioxol-4-yl]piperidin-1-yl}methyl)-6-[5-(trifluoromethyl)-4H-1,2,4-triazol-3-yl]pyrazin-2-yl]methyl}cyclopropane-1-carbonitrile] |
| 1 to 100 nM | N#CC1(Cc2cc(-c3nnc(C(F)(F)F)[nH]3)cnc2CN2CCN(c3ccc(Cl)c(OCc4ccc(Cl)cc4F)c3)CC2)CC1 [Example 42, 1-({2-[(4-{4-chloro-3-[(4-chloro-2-fluorophenyl)methoxy]phenyl}piperazin-1-yl)methyl]-5-[5-(trifluoromethyl)-4H-1,2,4-triazol-3-yl]pyridin-3-yl}methyl)cyclopropane-1-carbonitrile] |
| > 100 nM | Cc1cc(CN2CCC(c3cccc4c3OC(C)(c3ccc(Cl)cc3F)O4)CC2)ncc1-c1nnn[nH]1 (centres unmarked) [Example 96] |
| < 1 nM | C[C@H]1CN(c2ccc(F)c(OCc3ccc(Cl)cc3F)c2)CCN1Cc1ncc(-c2nnc(C(F)(F)F)[nH]2)cc1CC1(C#N)CC1 [Example 43, 1-[(2-{[(2S)-4-{3-[(4-chloro-2-fluorophenyl)methoxy]-4-fluorophenyl}-2-methylpiperazin-1-yl]methyl}-5-[5-(trifluoromethyl)-4H-1,2,4-triazol-3-yl]pyridin-3-yl)methyl]cyclopropane-1-carbonitrile] |
